Source: patent US20240158418A1 (C4 Therapeutics, Inc., priority 2021, published 2024)
Read-outs that look alike come from different tables or passages of the source.

Legend:
[1] = test system: BaF3 cells expressing EGFR L858R-L718Q; test: Ba/F3 EGFR cell viability (CellTiter-Glo), L858R-L718Q; assay type: cell-based; details: Mus musculus, read-out: CTGlo (GI50)
Description: (§1) RPMI 1640 media, cell culture flasks, and 384-well microplates were purchased from VWR (Radnor, PA, USA). Fetal bovine serum (FBS) was purchased from Life Technologies (Carlsbad, CA, USA) and CellTiter-Glo® was purchased from Promega (Madison, WI, USA). The Ba/F3 parental cell line was purchased from CrownBio (Santa Clara, CA). BaF3 cell lines ectopically expressing the EGFR mutations L858R, L858R-T790M, L858R-C797S, and L858R-T790M-C797S were purchased from CrownBio and EGFR mutations L858R-L718Q, L858R-T790M-L718Q, L858R-L792H, and L858R-T790M-L792H, were purchased from Signosis (Santa Clara, CA).
(§2) Cell viability was assessed based on the quantification of ATP using the CellTiter-Glo® assay (Promega, Madison, WI, USA). To determine the effect of compounds on cell viability, all Ba/F3 cell lines were plated at a cell density of 2000 cells/well in 384-well plates using RPMI 1640+10% FBS and treated with compounds of interest using a 10-point half-log dilution series in duplicate for 72 hours, with the highest dose set at […]. CellTiter-Glo® reagent was then added and luminescence signals were measured using an EnVision™ Multimode plate reader (Perkin Elmer, Santa Clara, CA). For data normalization, cells untreated with the test compounds at Time=72 hours were set to 100% (equivalent to maximal cell growth after 72 hours); cells untreated with the test compounds at Time=0 hours were set to 0% (equivalent to cytostasis); and media-only wells were set to −100% (equivalent to complete cytotoxicity). % Viability was determined by normalizing the signal with positive and DMSO treated negative controls on the same microtiter plate. The half-maximal inhibition of cell growth (GI50) is computed from where the fitted curve crosses 50% while the half-maximal lethal dose (LD50) is computed from where the fitted curve crosses −50%.

[2] = test system: BaF3 cells expressing EGFR L858R-C797S; test: Ba/F3 EGFR cell viability (CellTiter-Glo), L858R-C797S; assay type: cell-based; details: Mus musculus, read-out: CTGlo (GI50)
Description: as §1, §2

[3] = test system: BaF3 cells expressing EGFR L858R-T790M-L718Q; test: Ba/F3 EGFR cell viability (CellTiter-Glo), L858R-T790M-L718Q; assay type: cell-based; details: Mus musculus, read-out: CTGlo (GI50)
Description: as §1, §2

[4] = target: T1, pY1068 EGFR WT (Homo sapiens, UniProt P00533); test: Phospho-EGFR (pY1068) inhibition HTRF, A431; assay type: cell-based; details: A431 (wild-type), 6 hours; read-out: pEGFR IC50
T1 construct: A431 (harboring EGFR wildtype) was purchased from ATCC; host or cells: A431
Description: (§3) NCI-H1975 (harboring EGFR heterozygous L858R-T790M mutations) and NCI-H3255 (harboring EGFR heterozygous L858R mutation) were purchased from ATCC and NCI, respectively. NCI-H1975+CS (harboring EGFR heterozygous L858R-T790M-C797S mutations) was generated using CRISPR technology to introduce the additional C797S mutation by Horizon Discovery. A431 (harboring EGFR wildtype) was purchased from ATCC. RPMI 1640 no-phenol red medium and fetal bovine serum (FBS) were purchased from Gibco (Grand Island, NY, USA). Cell culture flasks and 384-well microplates were acquired from VWR (Radnor, PA, USA). Phosphorylated (pY1068) EGFR and Total EGFR (using L858R-specific detection antibody and pan-EGFR antibody for EGFR mutant cell lines and EGFR wild-type cell lines, respectively) HTRF assay kits were purchased from Cisbio (Bedford, MA, USA).
Degradation of EGFR protein containing L858R mutation or wild-type was determined based on quantification of FRET signal using a Total EGFR (L858R-specific or pan-EGFR detecting) HTRF assay kit. Phospho-EGFR (pEGFR) inhibition was determined based on quantification of FRET signal using a pY1068 EGFR HTRF assay kit. In separate assay plates, test compounds were added to the 384-well plate from a top concentration of 10 μM with 11 points, half log titration in duplicates. […] FRET signal was acquired on EnVision™ Multilabel Reader (PerkinElmer, Santa Clara, CA, USA). […]

[5] = target: T2, EGFR WT (Homo sapiens, UniProt P00533); test: EGFR degradation, Total EGFR (pan-EGFR) HTRF, A431; assay type: cell-based; details: A431 (wild-type), 6 hours; read-out: tEGFR DC50
T2 construct: A431 (harboring EGFR wildtype) was purchased from ATCC; host or cells: A431
Description: as §3
Degradation of EGFR protein containing L858R mutation or wild-type was determined based on quantification of FRET signal using a Total EGFR (L858R-specific or pan-EGFR detecting) HTRF assay kit. Phospho-EGFR (pEGFR) inhibition was determined based on quantification of FRET signal using a pY1068 EGFR HTRF assay kit. In separate assay plates, test compounds were added to the 384-well plate from a top concentration of 10 μM with 11 points, half log titration in duplicates. For each assay, 12.5 uL of cells suspended in assay media (RPMI 1640 no-phenol red medium+10% FBS) at cell densities indicated for each cell line in Table 8 below were dispensed using a multi-channel pipette to 384-well low volume white HTRF microplates containing a duplicate concentration range of test compounds and DMSO controls. The plates were kept at 37° C. with 5% CO2 for 6 hours and then incubated with either phospho EGFR or Total EGFR HTRF detection antibodies according to the cell line and EGFR mutant being assayed. Cells treated in the absence of the test compound were the negative control. Positive control was set by wells containing all reagents but no cells. FRET signal was acquired on EnVision™ Multilabel Reader (PerkinElmer, Santa Clara, CA, USA). Compound concentration that achieves 50% degradation and inhibition was reported as DC50 and IC50, respectively.

[6] = test system: BaF3 cells expressing EGFR L858R-T790M-C797S; test: Ba/F3 EGFR cell viability (CellTiter-Glo), L858R-T790M-C797S; assay type: cell-based; details: Mus musculus, read-out: CTGlo (GI50)
Description: as §1, §2

[7] = target: EGFR L858R (Homo sapiens, UniProt P00533, L858R); test: EGFR degradation, Total EGFR (L858R-specific) HTRF, NCI-H3255; assay type: cell-based; set-up: NCI-H3255 (harboring EGFR heterozygous L858R mutation); host or cells: NCI-H3255; details: 6 hours
Procedure, shortened: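 HTRF read-outs: pY1068 phospho-EGFR for IC50; total EGFR (pan-EGFR in A431, L858R-specific in mutant lines) for DC50. Compounds were titrated 11 points, half-log, from 10 μM in duplicate onto cells in 10% FBS RPMI, incubated 6 h at 37°C.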

[8] = test system: BaF3 cells expressing EGFR L858R-T790M-L792H; test: Ba/F3 EGFR cell viability (CellTiter-Glo), L858R-T790M-L792H; assay type: cell-based; details: Mus musculus, read-out: CTGlo (GI50)
Description: as §1, §2

[9] = test system: engineered triple mutant EGFR (L858R-T790M-C797S) BaF3 tumors; test: BaF3 triple mutant EGFR allograft efficacy; assay type: in vivo, female BALB/c nude mice; details: for efficacy on BaF3 tumor volume: Compound 1 or 2 at 20, 50, 100 mg/kg/day PO BID, osimertinib 25 mg/kg/day PO QD, 14 days
Procedure: Each Compound was administered BID (twice a day) orally (PO).
Tumor volume was measured twice weekly in two dimensions using calipers, and volume (mm^3) was calculated using the formula: V=0.5 a×b^2 where a and b are the long and short diameters of the tumor in mm, respectively. […] Treatment began on Day 0 with established subcutaneous BaF3 tumors with a mean tumor volume (MTV) of 108 mm^3.
Body weight and MTV were measured on a 2× weekly schedule. Statistical analysis was performed using a one-way ANOVA followed by Dunnett's multiple comparison test. Data are expressed as MTV±SEM.

[10] = H3255 (L858R), read-out: tEGFR DC50
[11] = Table 9A, NCI-H3255 cells, Total EGFR HTRF, read-out: H3255 EGFR DC50

Sequence of EGFR L858R (P00533 25-1210 L858R): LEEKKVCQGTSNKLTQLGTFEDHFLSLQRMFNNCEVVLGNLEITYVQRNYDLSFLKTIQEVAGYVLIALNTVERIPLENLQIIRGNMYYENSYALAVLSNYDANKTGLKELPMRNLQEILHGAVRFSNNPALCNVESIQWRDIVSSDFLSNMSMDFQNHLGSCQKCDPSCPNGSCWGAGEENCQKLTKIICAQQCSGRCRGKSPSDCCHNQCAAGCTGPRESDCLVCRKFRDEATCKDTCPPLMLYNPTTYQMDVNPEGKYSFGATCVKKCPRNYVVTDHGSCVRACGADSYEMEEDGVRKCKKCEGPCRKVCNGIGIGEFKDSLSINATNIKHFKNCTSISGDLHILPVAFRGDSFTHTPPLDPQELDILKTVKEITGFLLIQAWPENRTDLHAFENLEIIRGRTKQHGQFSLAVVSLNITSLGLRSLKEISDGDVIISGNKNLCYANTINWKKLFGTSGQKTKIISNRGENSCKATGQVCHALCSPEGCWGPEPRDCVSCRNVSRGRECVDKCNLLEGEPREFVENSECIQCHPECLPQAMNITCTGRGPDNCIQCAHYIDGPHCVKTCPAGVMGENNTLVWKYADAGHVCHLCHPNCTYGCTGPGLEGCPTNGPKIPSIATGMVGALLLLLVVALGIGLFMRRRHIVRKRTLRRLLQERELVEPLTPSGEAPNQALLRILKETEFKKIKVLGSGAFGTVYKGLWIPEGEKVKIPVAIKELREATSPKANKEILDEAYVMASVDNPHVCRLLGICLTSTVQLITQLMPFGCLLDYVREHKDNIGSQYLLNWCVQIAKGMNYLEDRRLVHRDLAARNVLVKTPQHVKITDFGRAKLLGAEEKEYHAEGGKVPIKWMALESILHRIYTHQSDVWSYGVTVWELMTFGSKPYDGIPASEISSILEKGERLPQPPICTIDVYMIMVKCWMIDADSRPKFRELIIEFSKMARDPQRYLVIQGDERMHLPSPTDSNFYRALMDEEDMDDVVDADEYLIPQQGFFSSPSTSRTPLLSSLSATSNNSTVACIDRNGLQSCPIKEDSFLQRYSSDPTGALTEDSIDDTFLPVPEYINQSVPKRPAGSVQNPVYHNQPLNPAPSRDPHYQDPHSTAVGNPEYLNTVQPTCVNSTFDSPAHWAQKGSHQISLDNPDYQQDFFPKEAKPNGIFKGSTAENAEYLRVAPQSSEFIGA
T2 sequence (P00533 25-1210): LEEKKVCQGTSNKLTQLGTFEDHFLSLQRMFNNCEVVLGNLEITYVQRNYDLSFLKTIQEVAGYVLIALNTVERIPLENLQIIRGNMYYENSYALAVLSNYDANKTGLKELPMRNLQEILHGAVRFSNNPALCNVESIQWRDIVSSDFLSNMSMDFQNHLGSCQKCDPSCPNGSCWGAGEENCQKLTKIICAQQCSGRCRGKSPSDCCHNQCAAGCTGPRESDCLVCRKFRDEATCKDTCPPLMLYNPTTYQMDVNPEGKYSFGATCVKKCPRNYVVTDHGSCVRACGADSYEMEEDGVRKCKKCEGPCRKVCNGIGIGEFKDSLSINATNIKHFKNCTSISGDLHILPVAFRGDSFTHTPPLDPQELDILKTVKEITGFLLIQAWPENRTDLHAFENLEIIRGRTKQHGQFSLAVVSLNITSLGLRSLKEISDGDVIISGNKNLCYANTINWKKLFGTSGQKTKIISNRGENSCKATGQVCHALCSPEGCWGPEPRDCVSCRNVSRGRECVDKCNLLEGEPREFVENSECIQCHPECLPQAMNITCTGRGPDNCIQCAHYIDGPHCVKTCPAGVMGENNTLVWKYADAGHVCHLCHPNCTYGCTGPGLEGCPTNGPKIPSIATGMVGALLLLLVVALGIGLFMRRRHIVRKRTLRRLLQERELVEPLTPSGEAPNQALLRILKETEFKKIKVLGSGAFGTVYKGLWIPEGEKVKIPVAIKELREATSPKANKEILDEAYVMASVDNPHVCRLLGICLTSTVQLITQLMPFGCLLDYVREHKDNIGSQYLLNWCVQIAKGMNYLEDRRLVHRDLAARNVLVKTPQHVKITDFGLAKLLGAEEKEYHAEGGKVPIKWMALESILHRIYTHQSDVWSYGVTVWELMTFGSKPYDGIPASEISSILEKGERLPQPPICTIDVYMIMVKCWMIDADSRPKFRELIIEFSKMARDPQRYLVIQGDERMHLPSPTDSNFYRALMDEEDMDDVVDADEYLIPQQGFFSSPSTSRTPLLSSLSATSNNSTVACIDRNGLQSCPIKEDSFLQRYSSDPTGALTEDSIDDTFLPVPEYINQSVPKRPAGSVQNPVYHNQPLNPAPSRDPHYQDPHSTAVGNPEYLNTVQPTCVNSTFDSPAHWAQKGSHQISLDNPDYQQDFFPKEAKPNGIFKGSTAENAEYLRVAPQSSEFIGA
T1 sequence (P00533 25-1210): as above

| SMILES | GI50 [1] [nM] | GI50 [2] [nM] | GI50 [3] [nM] | IC50 [4] [nM] | DC50 [5] [nM] | GI50 [6] [nM] | DC50 [7, 10] [nM] | DC50 [7, 11] [nM] | GI50 [8] [nM] | efficacy on BaF3 tumor volume [9] | tumor regression ([9]; BaF3 EGFR-L858R-T790M-C797S allograft mouse model, oral dosing) [%] |
| --- | --- | --- | --- | --- | --- | --- | --- | --- | --- | --- | --- |
| Cn1nc(N2CCC(=O)NC2=O)c2ccc([C@H]3CCN(CC(=O)N4CC5(C4)CN(c4ccc(-c6cc(F)c7c(c6)C(=O)N(C(C(=O)Nc6nccs6)c6ncn8c6CCC8)C7)cc4)C5)CC3(F)F)cc21 (stereo partly drawn) [Compound 2, 2-(6,7-dihydro-5H-pyrrolo[1,2-c]imidazol-1-yl)-2-[6-[4-[2-[2-[(4R)-4-[3-(2,4-dioxohexahydropyrimidin-1-yl)-1-methyl-indazol-6-yl]-3,3-difluoro-1-piperidyl]acetyl]-2,6-diazaspiro[3.3]heptan-6-yl]phenyl]-4-fluoro-1-oxo-isoindolin-2-yl]-N-thiazol-2-yl-acetamide] | 6 | 3 | 22 | > 10000 | > 10000 | 5 | 6 | < 50 | 9 | reduced tumor volume |  |
| O=C1CC[C@H](Nc2ccc(N3CCC(O)(CC(=O)N4CC5(C4)CN(c4ccc(-c6cc(F)c7c(c6)C(=O)N(C(C(=O)Nc6nccs6)c6ncn8c6CCC8)C7)cc4)C5)CC3)c(F)c2)C(=O)N1 (stereo partly drawn) [Compound 1, 2-(6,7-dihydro-5H-pyrrolo[1,2-c]imidazol-1-yl)-2-[6-[4-[2-[2-[1-[4-[[(3S)-2,6-dioxo-3-piperidyl]amino]-2-fluoro-phenyl]-4-hydroxy-4-piperidyl]acetyl]-2,6-diazaspiro[3.3]heptan-6-yl]phenyl]-4-fluoro-1-oxo-isoindolin-2-yl]-N-thiazol-2-yl-acetamide] | 24 | 5 | 44 | > 10000 | > 10000 | 7 | 5 | < 50 | 21 | reduced tumor volume | 60 |
